Structures can show the parent of a compound that is named as a salt. Where two headings read alike, the source gives them in different places.
Columns and labels:
[1] = target: T1, MerTK (Mus musculus, UniProt Q60805); test: MerTK degradation in RAW264 cells (Western blot); assay type: cell-based; conditions: RAW264.7, 0.001-1 μM, 4 hour-incubation at 37° C., read-out: RAW264 Max % MerTK Degradation
T1 construct: endogenous in cells; host or cells: RAW264 cells
T1 sequence (Q60805 19-994): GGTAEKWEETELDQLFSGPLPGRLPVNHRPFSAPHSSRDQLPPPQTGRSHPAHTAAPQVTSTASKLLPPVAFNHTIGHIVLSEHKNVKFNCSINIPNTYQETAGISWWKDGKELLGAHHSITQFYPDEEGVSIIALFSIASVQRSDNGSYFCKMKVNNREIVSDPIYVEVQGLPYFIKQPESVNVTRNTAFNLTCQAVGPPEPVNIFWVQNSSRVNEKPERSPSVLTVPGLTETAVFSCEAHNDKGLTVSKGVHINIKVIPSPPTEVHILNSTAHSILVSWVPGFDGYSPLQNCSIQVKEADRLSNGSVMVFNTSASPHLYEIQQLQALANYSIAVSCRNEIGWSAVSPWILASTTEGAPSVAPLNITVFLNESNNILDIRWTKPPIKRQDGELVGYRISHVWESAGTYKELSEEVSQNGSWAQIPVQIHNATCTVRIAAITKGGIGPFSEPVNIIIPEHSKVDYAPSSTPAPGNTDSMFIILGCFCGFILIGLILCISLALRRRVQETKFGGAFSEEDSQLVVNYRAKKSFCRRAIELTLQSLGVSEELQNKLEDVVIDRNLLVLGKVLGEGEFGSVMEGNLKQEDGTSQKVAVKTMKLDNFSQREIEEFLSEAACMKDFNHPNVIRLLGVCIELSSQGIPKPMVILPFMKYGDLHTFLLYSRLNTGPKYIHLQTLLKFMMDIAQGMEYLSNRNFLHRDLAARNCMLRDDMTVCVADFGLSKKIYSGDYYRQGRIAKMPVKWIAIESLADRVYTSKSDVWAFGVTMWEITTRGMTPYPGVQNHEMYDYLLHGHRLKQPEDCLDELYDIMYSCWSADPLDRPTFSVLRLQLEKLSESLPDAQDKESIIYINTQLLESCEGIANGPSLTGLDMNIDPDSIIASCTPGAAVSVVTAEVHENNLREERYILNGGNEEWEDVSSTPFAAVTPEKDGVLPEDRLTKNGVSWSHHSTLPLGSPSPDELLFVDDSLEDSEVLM
Description: Compounds were reconstituted in DMSO to make 10 mM stock solutions. RAW264 cells were maintained in DMEM medium containing 10% FBS. Cells were seeded into 6-well plates with 2×10^6 cells per well. 2 μL of diluted compounds were added to cells to the final concentration of 0.001-1 μM. After a 4 hour-incubation at 37° C., cells were washed with DPBS (1×) once. Then RIPA lysis buffer with Halt Protease and Phosphatase Inhibitor Cocktail was added directly to the cells and cells were then incubated on ice for 10 min, then lysate was harvested into 1.5 mL Eppendorf tubes and centrifuged at 14,000 rpm for 10 min at 4° C. and the supernatants were collected for Western blots.
The protein concentration of cell lysates was quantified with Pierce™ BCA Protein Assay Kit. […] BCA working reagents were prepared by mixing BCA reagent A with reagent B in 50: 1 ratio. 200 μL of the BCA working reagents were added to 25 μL of BCA standard or cell lysates in microplate, and mixed thoroughly on a plate shaker for 30 seconds. After incubation at 37° C. for 30 min, the absorbance of samples at 562 nm were measured with EnVision Plate Reader.
Protein lysates were prepared in NuPAGE™ LDS sample buffer and NuPAGE™ sample reducing agent, and incubated at 95° C. for 5 min. […] The proteins were transferred to low fluorescence PVDF membranes using the Trans-Blot Turbo Transfer System. Membranes were then blocked in Odyssey blocking buffer at RT for 1 h followed by primary incubation at 4° C. overnight. The primary antibodies were MerTK goat polyclonal antibody and actin mouse monoclonal antibody. Membranes were washed three times with TBST (1×), and then incubated with IR Dye 800 CW Donkey anti-goat and IR Dye 700 CW Goat anti-mouse secondary antibodies in 1:10,000 dilution at RT for 1 h. The Western blot images were obtained using Odyssey Imaging System.

[2] = target: T2, MerTK (Homo sapiens, UniProt Q12866); test: MerTk degradation in Jurkat cells (Western blot); assay type: cell-based; conditions: 0.001-1 μM, 4 hour-incubation at 37° C., read-out: Jurkat Max % MerTK Degradation
T2 construct: endogenous in cells; host or cells: Jurkat cells
T2 sequence (Q12866 21-999): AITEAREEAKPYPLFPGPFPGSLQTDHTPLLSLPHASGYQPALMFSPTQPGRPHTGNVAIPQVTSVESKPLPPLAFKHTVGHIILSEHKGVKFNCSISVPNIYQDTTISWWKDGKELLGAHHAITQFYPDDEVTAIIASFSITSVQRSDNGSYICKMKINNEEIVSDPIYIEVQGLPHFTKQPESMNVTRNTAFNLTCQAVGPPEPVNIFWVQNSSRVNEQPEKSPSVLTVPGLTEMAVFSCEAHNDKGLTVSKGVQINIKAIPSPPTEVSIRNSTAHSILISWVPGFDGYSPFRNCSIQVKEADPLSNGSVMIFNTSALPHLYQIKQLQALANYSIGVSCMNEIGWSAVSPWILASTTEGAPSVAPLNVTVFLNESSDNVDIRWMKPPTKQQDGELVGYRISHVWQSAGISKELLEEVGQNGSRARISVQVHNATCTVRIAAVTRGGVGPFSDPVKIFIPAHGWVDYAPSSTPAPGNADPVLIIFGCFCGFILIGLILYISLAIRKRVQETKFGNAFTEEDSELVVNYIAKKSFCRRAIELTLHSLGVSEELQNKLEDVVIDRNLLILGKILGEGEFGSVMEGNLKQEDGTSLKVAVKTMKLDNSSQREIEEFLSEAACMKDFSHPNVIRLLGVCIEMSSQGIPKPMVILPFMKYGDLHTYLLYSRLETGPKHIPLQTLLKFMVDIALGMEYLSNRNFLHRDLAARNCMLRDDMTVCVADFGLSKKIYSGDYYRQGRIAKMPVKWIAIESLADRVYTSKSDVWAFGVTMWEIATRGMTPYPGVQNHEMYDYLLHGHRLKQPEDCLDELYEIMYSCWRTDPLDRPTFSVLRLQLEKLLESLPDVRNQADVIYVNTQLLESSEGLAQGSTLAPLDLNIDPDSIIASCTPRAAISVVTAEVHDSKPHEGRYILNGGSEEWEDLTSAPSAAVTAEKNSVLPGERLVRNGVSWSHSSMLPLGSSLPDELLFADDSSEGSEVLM
Summary of the method: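 MerTK degradation was read by near-infrared Western blot, normalized to actin, in BCA-quantified lysates of Jurkat cells exposed to 0.001-1 μM compound for 4 h at 37 °C.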

Dmax [1]	Dmax ([2]; Jurkat, 4 h)	Structure (SMILES)	Dmax [2]
> 50%	> 50%	CCCCNc1ncc2c(-c3ccc(S(=O)(=O)N4CCN(CCOCCOCCOCCOCCCc5ccc6c(c5)n(C)c(=O)n6C5CCC(=O)NC5=O)CC4)cc3)cn([C@H]3CC[C@H](O)CC3)c2n1 (stereo partly drawn) [I-12, 3-(5-(1-(4-(4-(2-(Butylamino)-7-(trans-4-hydroxycyclohexyl)-7H-pyrrolo [2,3-d]pyrimidin-5-yl)phenylsulfonyl)piperazin-1-yl)-3,6,9,12-tetraoxapentadecan-15-yl)-3-methyl-2-oxo-2,3-dihydrobenzo[d]imidazol-1-yl)piperidine-2,6-dione]	
> 50%	> 50%	CCCCNc1ncc2c(-c3ccc(S(=O)(=O)N4CCN(CCOCCOCCOCCOCCCc5cccc6c5n(C)c(=O)n6C5CCC(=O)NC5=O)CC4)cc3)cn([C@H]3CC[C@H](O)CC3)c2n1 (stereo partly drawn) [I-13, 3-[4-[1-(4-[4-[2-(Butylamino)-7-[trans-4-hydroxycyclohexyl]-7H-pyrrolo [2,3-d]pyrimidin-5-yl]benzenesulfonyl]piperazin-1-yl)-3,6,9,12-tetraoxapentadecan-15-yl]-3-methyl-2-oxo-2,3-dihydro-1H-1,3-benzodiazol-1-yl]piperidine-2,6-dione formate]	
> 50%	> 50%	O=C1CCC(N2C(=O)c3cccc(NCCOCCOCCOCCOCCN4CCN(Cc5ccc(-c6cn([C@H]7CC[C@H](O)CC7)c7nc(NCCC8CC8)ncc67)cc5)CC4)c3C2=O)C(=O)N1 (stereo partly drawn) [I-14, 4-(15-[4-[(4-[2-[(2-Cyclopropylethyl)amino]-7-[trans-4-hydroxycyclohexyl]-7H-pyrrolo[2,3-d]pyrimidin-5-yl]phenyl)methyl]piperazin-1-yl]-4,7,10,13-tetraoxa-1-azapentadecan-1-yl)-2-(2,6-dioxopiperidin-3-yl)-2,3-dihydro-1H-isoindole-1,3-dione formate]	
20 to 50%	> 50%	COCCNc1ncc2c(-c3ccc(CN4CCN(CCOCCOCCOCCOCCNc5cccc6c5C(=O)N(C5CCC(=O)NC5=O)C6=O)CC4)cc3)cn([C@H]3CC[C@H](O)CC3)c2n1 (stereo partly drawn) [I-15, 2-(2,6-Dioxopiperidin-3-yl)-4-(15-[4-[(4-[2-[(2-methoxyethyl)amino]-7-[trans-4-hydroxycyclohexyl]-7H-pyrrolo[2,3-d]pyrimidin-5-yl]phenyl)methyl]piperazin-1-yl]-4,7,10,13-tetraoxa-1-azapentadecan-1-yl)-2,3-dihydro-1H-isoindole-1,3-dione diformate]	
> 50%	> 50%	CCCCNc1ncc2c(-c3ccc(S(=O)(=O)N4CCN(C(=O)NCCCOCCCOCCCNc5cccc6c5C(=O)N(C5CCC(=O)NC5=O)C6=O)CC4)cc3)nn([C@H]3CC[C@H](O)CC3)c2n1 (stereo partly drawn) [I-19, 4-((4-(6-(Butylamino)-1-(trans-4-hydroxycyclohexyl)-1H-pyrazolo[3,4-d]pyrimidin-3-yl)phenyl)sulfonyl)-N-(3-(3-(3-((2-(2,6-dioxopiperidin-3-yl)-1,3-dioxoisoindolin-4-yl)amino)propoxy)propoxy)propyl)piperazine-1-carboxamide]	
> 50%	> 50%	CCCCNc1ncc2c(-c3ccc(S(=O)(=O)N4CCN(C(=O)NCCCOCCCNc5cccc6c5C(=O)N(C5CCC(=O)NC5=O)C6=O)CC4)cc3)nn([C@H]3CC[C@H](O)CC3)c2n1 (stereo partly drawn) [I-20, 4-((4-(6-(Butylamino)-1-(trans-4-hydroxycyclohexyl)-1H-pyrazolo[3,4-d]pyrimidin-3-yl)phenyl)sulfonyl)-N-(3-(3-((2-(2,6-dioxopiperidin-3-yl)-1,3-dioxoisoindolin-4-yl)amino)propoxy)propyl)piperazine-1-carboxamide]	
20 to 50%	20 to 50%	Cc1ccc(CNc2ncc(-c3ccc(CN4CCN(CCOCCOCCOCCOCCNc5cccc6c5C(=O)N(C5CCC(=O)NC5=O)C6=O)CC4)cn3)c(N[C@H]3CC[C@H](O)CC3)n2)cc1 (stereo partly drawn) [I-21, 2-(2,6-Dioxopiperidin-3-yl)-4-[15-(4-[[6-(2-[[(4-methylphenyl)methyl]amino]-4-[[trans-4-hydroxycyclohexyl]amino]pyrimidin-5-yl)pyridin-3-yl]methyl]piperazin-1-yl)-4,7,10,13-tetraoxa-1-azapentadecan-1-yl]-2,3-dihydro-1H-isoindole-1,3-dione]	
20 to 50%	> 50%	CCCCNc1ncc2c(-c3ccc(S(=O)(=O)N4CCN(C(=O)NCCOCCCOCCNc5cccc6c5C(=O)N(C5CCC(=O)NC5=O)C6=O)CC4)cc3)nn([C@H]3CC[C@H](O)CC3)c2n1 (stereo partly drawn) [I-23, 4-((4-(6-(Butylamino)-1-(trans-4-hydroxycyclohexyl)-1H-pyrazolo[3,4-d]pyrimidin-3-yl)phenyl)sulfonyl)-N-(2-(3-(2-((2-(2,6-dioxopiperidin-3-yl)-1,3-dioxoisoindolin-4-yl)amino)ethoxy)propoxy)ethyl)piperazine-1-carboxamide]	

Structure (SMILES)	Dmax [1]	Dmax ([2]; Jurkat, 4 h)	Dmax [2]
CCCCNc1ncc2c(-c3ccc(CNCCCOCCCOCCCc4cccc5c4n(C)c(=O)n5C4CCC(=O)NC4=O)cc3)cn([C@H]3CC[C@H](O)CC3)c2n1 (stereo partly drawn) [I-6, Trans-3-[4-[3-(3-[3-[([4-[2-(butylamino)-7-[4-hydroxycyclohexyl]-7H-pyrrolo[2,3-d]pyrimidin-5-yl]phenyl]methyl)amino]propoxy]propoxy)propyl]-3-methyl-2-oxo-2,3-dihydro-1H-1,3-benzodiazol-1-yl]piperidine-2,6-dione]	> 50%		> 50%
